Measured values taken from publication PMC10127268, “Rational Design of Phosphorylation-Responsive Coiled Coil-Peptide Assemblies” (ACS Synthetic Biology, 2023).
Where two headings read alike, the source gives them in different places.

T1: apCC-Tet-A-S17 (N-terminal acetyl; C-terminal amide)
T1 chain: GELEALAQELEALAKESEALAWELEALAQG

T2: CC-Tet-A-S14 (N-terminal acetyl; C-terminal amide)
T2 chain: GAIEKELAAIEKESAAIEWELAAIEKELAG


Columns and labels:
[1] = CD, PBS pH 7.4, 10 μM individual peptide; ref 5 (Edgell et al., 2020); cited from earlier work
Protocol: page 28: Table S4. Biophysical parameters for switchable peptides and complexes. Peptide(s) Helicity at 5 °C (%)a TM (°C) CC-Tet-A 37b < 20b CC-Tet-B 37b < 20b CC-Tet-A-S14 23 < 20 CC-Tet-A-S7 29 < 20 CC-Tet-A-S21 25 < 20 CC-Tet-B-RRXS14 26 < 20 CC-Tet-A + B 87b > 95b CC-Tet-A-S14 + B-RRXS14 67 62 CC-Tet-A-S7 + B-RRXS14 70 66 CC-Tet-A-S21 + B-RRXS14 81 72 apCC-Tet-A-S10 48 < 20 apCC-Tet-A-S17 42 < 20 apCC-Tet-B-S20 40 < 20 apCC-Tet-B-RRXS13 39 < 20 apCC-Tet-B-RRXS20 38 < 20 apCC-Tet-A-S10 + B-S20 93 > 95 apCC-Tet-A-S10 + B-RRXS20 80 75 apCC-Tet-A-S17 + B-RRXS13 84 72 apCC-Tet-A-S17 + B-RRXS20 ...

[2] = even at 100 μM; cited from earlier work
[3] = CD spectroscopy, helicity at 5 °C; format: physicochemical; conditions: PBS pH 7.4, 10 μM individual peptide
Protocol: (§1) CD spectra and thermal denaturation curves were obtained using a JASCO J810 or 815 spectropolarimeter fitted with a Peltier temperature controller. CD spectra (260 to 190 nm, with 1 nm step size, 100 nm.min^–1 scanning speed, 1 nm bandwidth and 1 s response time) were measured in PBS (137 mM NaCl, 2.7 mM KCl, and 10 mM phosphate buffer, pH 7.4) at 5 °C in quartz cuvettes. Thermal denaturation experiments were performed using 10 μM individual peptide concentration in a 5 mm cuvette. For thermal denaturation experiments, the CD signal at 222 nm was recorded at 1 °C intervals upon heating from 5 to 95 °C at a rate of 40 or 60 °C/h (1 nm interval, 1 nm bandwidth, 16 s response time). Data was buffer subtracted, and then normalized for peptide concentration, number of amide bonds present, and cuvette path length to give the mean residue ellipticity (MRE). Midpoints of thermal denaturation were calculated using the second derivative of the corresponding thermal denaturation curve. Fraction helix (%) was calculated using the following equation (where MREcoil = 640 – 45T; T, temperature (°C); n, number of amide bonds in sample including C-terminal amide):[68] [drawing 2]

[4] = Thermal denaturation monitored by CD (MRE222), midpoint TM; format: physicochemical; conditions: for TM (°C), midpoint of thermal unfolding: CD at 222 nm, 5 to 95 °C, PBS pH 7.4, 10 μM individual peptide; for folding and thermal stability by CD, in words: PBS pH 7.4, 10 µM individual peptide
Protocol: as §1

[5] = Sedimentation-velocity analytical ultracentrifugation; format: physicochemical; conditions: PBS pH 7.4, 20 °C, 70 μM of each peptide for mixtures
Protocol: Sedimentation-velocity (SV) experiments were conducted at 20 °C in a Beckman-Optima XL-I analytical ultracentrifuge using an An-60 Ti rotor. Samples were prepared in PBS at 140 μM total peptide concentration. Samples were centrifuged at a speed of 50,000 or 60,000 rpm. The partial specific volume (v̅) for each peptide was calculated and data sets were fitted to a single, ideal species model using SEDFIT. Sedimentation-equilibrium (SE) experiments were conducted at 20 °C in a Beckman-Optima XL-I analytical ultracentrifuge using an An-50 Ti rotor. Samples were prepared in PBS at 70 μM total peptide concentration. Samples were centrifuged at a range of speeds from 18,000–39,000 rpm with defined intervals, and 8 h between subsequent scans. Data sets were analyzed using SEDPHAT.

[6] = molecular target: CC-Tet-A-S14; experiment: Isothermal titration calorimetry (ITC) of CC-Tet-B-RRXS14 into CC-Tet-A-S14; format: binding; conditions: 200 μM CC-Tet-B-RRXS14 into 20 μM CC-Tet-A-S14, PBS, 37 °C, heterodimer model, global fit n = 3, read-out: observable KD (concentration at which the complex is half folded)
Protocol: To model the disassembly of the A2B2 complex into the unfolded peptides A and B, we needed to determine the dissociation constant (KD) and use this to estimate the forward and reverse rate constants, koff and kon (Figure 5). To do this, we used isothermal titration calorimetry (ITC), titrating CC-Tet-B-RRXS14 into 20 μM CC-Tet-A-S14 at 37 °C, and the heat released upon binding was measured. […] We contend that this sub-μM KD—which is consistent with our CD measurements (Figure S30)—is close to ideal for use in synthetic biology systems in cells and in vitro, as functioning at μM concentrations leaves the system poised in a folded state, but close to unfolding, rendering it receptive to phosphorylation-induced switching.
Peptides were dissolved in PBS buffer to a concentration around 1 mM and a volume of 1 mL. Samples were then individually dialyzed into 1.5 L of PBS with gentle stirring overnight using a Mini Dialysis Kit (Cyvita) with a 1 kDa membrane cut off. Sample concentration was subsequently remeasured to account for changes in volume because of diffusion during dialysis. […]
To analyze the data, NITPIC, SEDPHAT, and GUSSI were used.[72]−[74] […] Following this, experiments were analyzed using SEDPHAT, which allowed correction of concentration deviations and outlier injection exclusion, after which data was fitted to a heterodimer model (as no heterotetramer model was available). […]

[7] = molecular target: T1, apCC-Tet-A-S17; experiment: circular dichroism (Job plot); fraction helix at different ratios of the two peptides, total peptide concentration 20 μM, PBS pH 7.4; conditions: both partners purified
[8] = molecular target: T2, CC-Tet-A-S14; experiment: ITC; 200 μM CC-Tet-B-RRXS14 injected into 20 μM CC-Tet-A-S14, 37 °C, PBS; fitted to a heterodimer model, global fit of three experiments; observable (apparent) KD; conditions: both partners purified
[9] = molecular target: T2, CC-Tet-A-S14; experiment: kinetic model fitted to the CD phosphorylation time course; ordinary differential equations (Berkeley Madonna); koff and kon optimised with K_D(T) held at 3.18 × 10^-19 M^3; tetramer A2B2 to unfolded peptides A and B; 37 °C, 10 μM of each peptide; conditions: both partners purified

| Molecule | Helicity at 5 °C (%) [3] [%] | TM (°C), midpoint of thermal unfolding [4] [°C] | further results |
| --- | --- | --- | --- |
| Ac-G AIKQ KLAAIKQ KLAAIKW KLAAIKQ KLA G-NH2 [CC-Tet-B, basic peptide of the previously published parallel heterotetramer CC-Tet-A2B2] |  |  | TM (°C), midpoint of thermal unfolding [1]: < 20 °C; self-association of individual peptide [2]: do not self-associate |
| Ac-G AIEK ESAAIEK ELAAIEW ELAAIEK ELA G-NH2 [CC-Tet-A-S7, CC-Tet-A variant with Ser at position 7] | 29 | < 20 |  |
| Ac-G ELEALAQ ELEALAK ESEALAW ELEALAQ G-NH2 [apCC-Tet-A-S17, acidic antiparallel peptide with Ser at position 17] | 42 | < 20 |  |
| Ac-G KLKALAQ KRRASAK KLKALAW KLKALAQ G-NH2 [apCC-Tet-B-RRXS13, basic antiparallel peptide with PKA site, Ser at position 13] | 39 | < 20 |  |
| Ac-G ELEALAQ ELEALAK ELEALAW ELEALAQ G-NH2 [apCC-Tet-A1, initial acidic antiparallel design] |  |  | folding and thermal stability by CD, in words [4]: stably folded; oligomeric state from SV AUC (x monomer mass) [5]: 4.5 x monomer mass |
| Ac-G ELEALAQ ESEALAK ELEALAW ELEALAQ G-NH2 [apCC-Tet-A-S10, acidic antiparallel peptide with Ser at position 10] | 48 | < 20 |  |
| Ac-G KLKALAQ KLKALAK KLKALAW KLKALAQ G-NH2 [apCC-Tet-B1, initial basic antiparallel design] |  |  | folding and thermal stability by CD, in words [4]: stably folded; oligomeric state from SV AUC (x monomer mass) [5]: 5.2 x monomer mass |
| Ac-G KLKALAQ KLKALAK KLKASAW KLKALAQ G-NH2 [apCC-Tet-B-S20, basic antiparallel peptide with Ser at position 20] | 40 | < 20 |  |
| Ac-G AIKQ KLAAIRR KSAAIKW KLAAIKQ KLA G-NH2 [CC-Tet-B-RRXS14, basic parallel peptide with PKA site R-R-X-S, Ser at position 14] | 26 | < 20 | Kd [6]: 542 nM |
| Ac-G AIEK ELAAIEK ESAAIEW ELAAIEK ELA G-NH2 [CC-Tet-A-S14, CC-Tet-A variant with Ser at position 14] | 23 | < 20 |  |
| Ac-G AIEK ELAAIEK ELAAIEW ESAAIEK ELA G-NH2 [CC-Tet-A-S21, CC-Tet-A variant with Ser at position 21] | 25 | < 20 |  |
| Ac-G AIEK ELAAIEK ELAAIEW ELAAIEK ELA G-NH2 [CC-Tet-A, acidic peptide of the previously published parallel heterotetramer CC-Tet-A2B2] |  |  | TM (°C), midpoint of thermal unfolding [1]: < 20 °C; self-association of individual peptide [2]: do not self-associate |
| Ac-G KLKALAQ KLKALAK KRRASAW KLKALAQ G-NH2 [apCC-Tet-B-RRXS20, basic antiparallel peptide with PKA site, Ser at position 20] | 38 | < 20 |  |
| Ac-GKLKALAQKLKALAKKLKASAWKLKALAQG-NH2 [apCC-Tet-B-S20] |  |  | stoichiometry N [7]: 1 |
| Ac-GAIKQKLAAIRRKSAAIKWKLAAIKQKLAG-NH2 [CC-Tet-B-RRXS14] |  |  | Kd [8]: 542 nM; stoichiometry N [8]: ~1; koff [9]: 0.0038 s⁻¹; kon [9]: 229000 M⁻¹ s⁻¹ |
